We go through one compound from patent US11919893B1, “7-(4-((5-(2-bromobenzylideneamino)-2-thioxo-1,3,4-thiadiazol-3(2H)-yl)methyl) piperazin-1-yl)-1-cyclopropyl-6-fluoro-4-oxo-1,4-dihydroquinoline-3-carboxylic acid as an anti-inflammatory compound” (KING FAISAL UNIVERSITY, priority 2023, dated 2024).

This assay has as its target Bovine serum albumin (Bos taurus, UniProt P02769). In words: Bovine serum albumin (BSA) protein denaturation assay, in vitro anti-inflammatory activity. Type of assay: biochemical. The method, then:
Bovine Serum Albumin Assay (BSA) In vitro-inflammatory activities of the tested samples were determined using a modified method of the BSA assay reported by Williams et al. BSA solution (0.4%, w/v) was prepared in Tris Buffered Saline. The pH was adjusted to 6.4 with glacial acetic acid. Different dilutions of 20, 40, 60, 80, and 100 μg/mL of 7-(4-((5-(2-bromobenzylideneamino)-2-thioxo-1,3,4-thiadiazol-3(2H)-yl)methyl)piperazin-1-yl)-1-cyclopropyl-6-fluoro-4-oxo-1,4-dihydroquinoline-3-carboxylic acid (IV) the stock solutions were added to test tubes containing 1 mL of 0.4%, w/v BSA buffer solution. Both negative (solvent) and positive (aspirin) controls were assayed in a similar manner. The solutions were then heated in a water bath at 72° C. for 10 minutes and cooled for 20 minutes under laboratory conditions. The turbidity of the solutions (level of protein precipitation) was measured at 660 nm in Spectrophotometer (V-770 UV-Visible/NIR Spectrophotometer). The percentage inhibition of precipitation (protein denaturation) was determined relative to the negative control using the following equation: [formula] % Anti-Denaturation Activity=% Inhibition of Protein Denaturation=% Anti-inflammatory Activity

The mark [1] stands for this setting: read-out: % Inhibition of protein denaturation (Bovine serum albumin).

Sequence of Bovine serum albumin (P02769 25-607): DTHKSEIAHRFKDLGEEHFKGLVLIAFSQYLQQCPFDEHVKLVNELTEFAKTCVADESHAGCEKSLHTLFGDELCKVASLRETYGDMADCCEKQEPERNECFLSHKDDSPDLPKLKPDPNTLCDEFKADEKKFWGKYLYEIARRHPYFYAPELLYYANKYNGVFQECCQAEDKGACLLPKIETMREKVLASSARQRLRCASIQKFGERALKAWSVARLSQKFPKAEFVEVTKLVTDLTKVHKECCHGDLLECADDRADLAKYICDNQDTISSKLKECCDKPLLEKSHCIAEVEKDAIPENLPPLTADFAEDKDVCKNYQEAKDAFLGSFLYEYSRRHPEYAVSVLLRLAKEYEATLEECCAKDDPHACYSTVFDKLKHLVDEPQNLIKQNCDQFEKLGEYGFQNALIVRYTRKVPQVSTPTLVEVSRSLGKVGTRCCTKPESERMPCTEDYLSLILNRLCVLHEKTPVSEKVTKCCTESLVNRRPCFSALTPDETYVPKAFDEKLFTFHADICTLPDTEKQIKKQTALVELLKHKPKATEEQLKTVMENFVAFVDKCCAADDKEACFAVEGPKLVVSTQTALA

For `O=C(O)c1cn(C2CC2)c2cc(N3CCN(Cn4nc(N=Cc5ccccc5Br)sc4=S)CC3)c(F)cc2c1=O` [IV, 7-(4-((5-(2-bromobenzylideneamino)-2-thioxo-1,3,4-thiadiazol-3(2H)-yl)methyl)piperazin-1-yl)-1-cyclopropyl-6-fluoro-4-oxo-1,4-dihydroquinoline-3-carboxylic acid], the “in vitro anti-inflammatory activity (in words)” value (BSA denaturation assay) was “considerable anti-inflammatory effect”. Under setting [1], the inhibition at 20 µg/mL stood at 62.6%, the inhibition at 40 µg/mL worked out at 73.1%, the inhibition at 60 µg/mL was 75.2% and the inhibition at 80 µg/mL was 82%. Also, under setting [1], the inhibition at 100 µg/mL stood at 84.8%.
